{"source": "patent US20220152067A1", "about": "“Cancer Immunotherapy Adjuvant” (lndustry-Academic Cooperation Foundation, Yonsei University, priority 2019, published 2022)", "type_in_all_cases": "in vivo, C57BL/6 male mice", "key": {"[1]": {"system": "MC38 colorectal cancer cell line", "test": "Tumor size change in mice after MC38 colorectal cancer cell line injection and drug administration", "conditions": "subcutaneous MC-38 tumor, drug administration for 7 days; statistically proved by two-way ANOVA", "procedure": "(§1) MC-38 colorectal cancer cells (5×10^5 cells) were injected subcutaneously into 7-week-old C57BL/6 male mice. Seven days after the colorectal cancer cells were injected, the average tumor volume of the subcutaneous MC-38 tumor was about 40 mm^3. The injection method of the mouse tumor as described above was equally applied to all four groups below. Afterwards, the experimental group was divided into the vehicle administration control group, SAC-1004 and anti-PD1 co-administration group, SAC-1004 single administration group, and anti-PD1 single administration group, and the experiment was performed.\n(§2) Specifically, the administration was performed as follows. SAC-1004, a vascular leak inhibitor, was dissolved in DMSO in PBS, and 1 mg per kg of mouse body weight was administered daily by intravenous injection. Anti-PD1, an immune checkpoint inhibitor, was administered at the concentration of 200 ng/mouse by intraperitoneal injection 3 times a week along with 200 ng of rat igG2a. […]\n(§3) In a total of 4 groups consisting of control group, SAC-1004 and anti-PD1 co-administration group, SAC-1004 single administration group, and anti-PD1 single administration group, the tumor size changes according to the drug administration for 7 days as described above in the experimental animal model were analyzed."}, "[2]": {"test": "Spleen size and weight of mice after MC38 injection and drug administration", "conditions": "MC38 model, 7 days; not statistically significant by one-way ANOVA", "procedure": "as §1, §2\nas §3, with “spleen” for “tumor”, “of mice treated with” for “changes according to”, “drug” for “drug administration”, “was” for “were”"}, "[3]": {"system": "MC38 colorectal cancer cell line", "test": "Tumor weight of mice after MC38 injection and drug administration", "conditions": "MC38 model, 7 days; statistically proved by one-way ANOVA", "procedure": "as §1, §2\nas §3, with “weight of mice treated with” for “size changes according to”, “drug” for “drug administration”, “was” for “were”"}, "[4]": {"system": "VE-cadherin", "test": "Adherent junction expression in mouse tumor (IHC staining)", "conditions": "drug administered for 14 days", "procedure": "as §1\nSpecifically, the administration was performed as follows. SAC-1004, a vascular leak inhibitor, was dissolved in DMSO in PBS, and 1 mg per kg of mouse body weight was administered daily by intravenous injection. […]\nIn a total of 4 groups consisting of control group, SAC-1004 and anti-PD1 co-administration group, SAC-1004 single administration group, and anti-PD1 single administration group, the expression of adherent junction in the tumor of the mouse treated with the drug as described above in the experimental animal model was analyzed except that the drug was administered for 14 days by daily administration of SAC-1004 for 7 days and administration of anti-PD1 3 times a week. […]"}}}
{"compound": "COC(=O)CCC/C=C(\\C)[C@H]1CCC2C3CC=C4C[C@@H](OC5C=C[C@H](OC(C)=O)[C@@H](COC(C)=O)O5)CC[C@]4(C)C3CC[C@@]21C", "note": "(stereo partly shown) [SAC-1004]", "values": [{"measurement": "tumor size", "setting": "[1]", "result": "reduced compared to that in the control group"}, {"measurement": "spleen weight", "setting": "[2]", "result": "higher than that of the control group mice"}, {"measurement": "tumor weight", "setting": "[3]", "result": "lower than that of the anti-PD1 single administration group mice"}, {"measurement": "ratio of intratumoral VE-cadherin", "setting": "[4]", "result": "increased"}]}
